Test results from patent US20240132498A1, “CRYSTALLINE FORMS OF 5-(3,4-DIFLUOROBENZYL)-8-((1R,4R)-4-METHYLCYCLOHEXYL)-6,9-DIOXO-2,5,8-TRIAZASPIRO[3.5]NONANE-2-CARBALDEHYDE” (Cytokinetics, Incorporated, priority 2022, published 2024).
Blank lines part the entries; values can stand above or below the compound they belong to.

What was measured:
Type in all cases: physicochemical
[1] = Polymorph screening with liquid assisted grinding (LAG), XRPD outcome
Procedure: 30 mg of amorphous 5-(3,4-difluorobenzyl)-8-((1r,4r)-4-methylcyclohexyl)-6,9-dioxo-2,5,8-triazaspirol[3.5]nonane-2-carbaldehyde was wetted with solvent (5 μL). Two grinding beads (3 mm diameter) were added and the samples were ground for 2 hours at 500 rpm using a planetary Fritsch Mill (Pulverisette 6). After grinding all solids were analysed by XRPD.
Gums were stored at ambient conditions. Gums and samples containing brittle material were dried in-vacuo at R. T. in a vacuum oven overnight (ca. 200 mbar). Observations were recorded and the samples were further dried in-vacuo at R. T. in a vacuum oven overnight (ca. 5 mbar). Where gums still persisted, the samples were further dried in-vacuo at R. T. in a vacuum oven (ca. 5 mbar) for 3 days. The observations and XRPD analysis are provided in Table 5-G. Further treatment details of gums and brittle materials are summarized in Table 5-H.

[2] = Short-term static storage stability of the solid (XRPD, HPLC)
Procedure: Purity analysis was performed on an Agilent HP1100/Infinity 111260 series system equipped with a diode array detector and using OpenLAB software. The full method details are provided below.
For short-term (8 days or fewer) stability experiments, solid material was placed into open vials at elevated storage conditions, unless otherwise stated. These conditions were achieved using saturated salt solutions at specific temperatures within sealed containers. Storage containers were pre-equilibrated prior to input of samples.

[3] = Competitive slurry experiments between Form I and Form II; settings: competitive slurry
From the text: The results of the competitive slurry experiments are provided below in Table 6.

[4] = Storage at 40° C./75% RH for 7 days

XRPD ([1]; LAG gum/brittle material after drying in-vacuo, solvent EtOH/water 97:3 v/v): Form II | XRPD ([1]; LAG of amorphous material, solvent 1,4-dioxane/water 99:1 v/v): Form II | XRPD ([1]; LAG of amorphous material, solvent 1-PrOH/water 98:2 v/v): Form I | XRPD ([1]; LAG of amorphous material, solvent 15% v/v water in 1-PrOH): Form II | XRPD ([1]; LAG of amorphous material, solvent 15% v/v water in 2-PrOH): Form II | XRPD ([1]; LAG of amorphous material, solvent 15% v/v water in DMSO): Form I | XRPD ([1]; LAG of amorphous material, solvent 15% v/v water in EtOH): Form II | XRPD ([1]; LAG of amorphous material, solvent 15% v/v water in MeOH): Form II | XRPD ([1]; LAG of amorphous material, solvent 15% v/v water in acetone): Form I | XRPD ([1]; LAG of amorphous material, solvent 50% v/v water in 1-PrOH): Form II | XRPD ([1]; LAG of amorphous material, solvent 50% v/v water in DMSO): Form I | XRPD ([1]; LAG of amorphous material, solvent 50% v/v water in EtOH): Form I | XRPD ([1]; LAG of amorphous material, solvent 50% v/v water in acetone): Amorphous | XRPD ([1]; LAG of amorphous material, solvent 80% v/v water in 2-BuOH): Form I | XRPD ([1]; LAG of amorphous material, solvent 85% v/v water in 2-PrOH): Form I | XRPD ([1]; LAG of amorphous material, solvent 85% v/v water in acetone): Amorphous | XRPD ([1]; LAG of amorphous material, solvent 95% v/v water in 2-BuOH): Form I | XRPD ([1]; LAG of amorphous material, solvent Acetone/water 99:1 v/v): Form II | XRPD ([1]; LAG of amorphous material, solvent Acetonitrile/water 1:1 v/v): Form II | XRPD ([1]; LAG of amorphous material, solvent MeOH/water 97:3 v/v): Form II
Compound: C[C@H]1CC[C@H](N2CC(=O)N(Cc3ccc(F)c(F)c3)C3(CN(C=O)C3)C2=O)CC1

XRPD [2, 4]: converted to crystalline Form II
Compound: C1COCCO1.C[C@H]1CC[C@H](N2CC(=O)N(Cc3ccc(F)c(F)c3)C3(CN(C=O)C3)C2=O)CC1 [Form III, 5-(3,4-difluorobenzyl)-8-((1r,4r)-4-methylcyclohexyl)-6,9-dioxo-2,5,8-triazaspiro[3.5]nonane-2-carbaldehyde 1,4-dioxane solvate]

XRPD ([3]; EtOAc, 5 °C): Form II | XRPD ([3]; EtOAc/cyclohexane (50:50 v/v), 5 °C): Form II | XRPD ([3]; EtOAc/cyclohexane (50:50 v/v), 50 °C): Form II | XRPD ([3]; EtOAc/cyclohexane (85:15 v/v), 5 °C): Form II | XRPD ([3]; EtOAc/cyclohexane (85:15 v/v), 50 °C): Form II | XRPD ([3]; EtOH, 5 °C): Form II | XRPD ([3]; EtOH, 50 °C): Form II | XRPD ([3]; EtOH/water (15/85 v/v), 50 °C): Form II | XRPD ([3]; EtOH/water (85:15 v/v), 50 °C): Form II | XRPD ([3]; MIBK, 5 °C): Form II | XRPD ([3]; MIBK, 50 °C): Form II | XRPD ([3]; Toluene, 50 °C): Form II | XRPD ([3]; acetonitrile, 5 °C): Form II | XRPD ([3]; acetonitrile, 50 °C): Form II
Compound: C[C@H]1CC[C@H](N2CC(=O)N(Cc3ccc(F)c(F)c3)C3(CN(C=O)C3)C2=O)CC1 [Forms I and II]

HPLC purity ([2]; Before Storage): 96.3% | XRPD ([2]; Before Storage): Form I | XRPD ([2]; Storage at 25° C./97% RH for 7 days): Unchanged by XRPD | XRPD [2, 4]: Unchanged by XRPD
Compound: C[C@H]1CC[C@H](N2CC(=O)N(Cc3ccc(F)c(F)c3)C3(CN(C=O)C3)C2=O)CC1 [Form I, 5-(3,4-difluorobenzyl)-8-((1r,4r)-4-methylcyclohexyl)-6,9-dioxo-2,5,8-triazaspiro[3.5]nonane-2-carbaldehyde]
